Experiments:
Mus musculus [1] = assay: Potentiation of chlorprothixene-induced sedative effect in po dosed CD-1 mouse assessed as loss of righting reflex; format: functional; conditions: CD-1, po
Mus musculus [2] = assay: Anticonvulsant activity in po dosed CD-1 mouse assessed as protection against pentylenetetrazole-induced convulsion; format: functional; conditions: CD-1, po
Mus musculus [3] = assay: Anticonvulsant activity in po dosed CD-1 mouse assessed as protection against strychnine-induced convulsion after 30 mins; format: functional; conditions: CD-1, po, 0.5 h
Mus musculus [4] = assay: Acute toxicity in po dosed CD-1 mouse assessed as mortality after 24 hrs; format: organism-based; conditions: in vivo
Mus musculus [5] = assay: Potentiation of hexobarbital-induced sedative effect in po dosed CD-1 mouse assessed as loss of righting reflex after 30 secs; format: functional; conditions: CD-1, po
Mus musculus [6] = assay: Anticonvulsant activity in po dosed CD-1 mouse assessed as protection against maximal electroshock-induced convulsion; format: functional; conditions: CD-1, po
Mus musculus [7] = assay: Induction of muscle relaxation in po dosed CD-1 mouse after 30 mins by rotary drum test; format: functional; conditions: CD-1, po, 0.5 h
Mus musculus [8] = assay: Antianxiety activity in po dosed CD-1 mouse assessed as inhibition of foot shock-induced aggression after 30 mins relative to control; format: functional; conditions: CD-1, po, 0.5 h

| SMILES | ED50 (Mus musculus [1]) [mg/kg] | ED50 (Mus musculus [2]) [mg/kg] | ED50 (Mus musculus [3]) [mg/kg] | ED50 (Mus musculus [4]) [mg/kg] | ED50 (Mus musculus [5]) [mg/kg] | ED50 (Mus musculus [6]) [mg/kg] | ED50 (Mus musculus [7]) [mg/kg] | ED50 (Mus musculus [8]) [mg/kg] |
| --- | --- | --- | --- | --- | --- | --- | --- | --- |
| CN1CCN(/C=C2\N=C3CN=C(c4ccccc4F)c4cc(Cl)ccc4N3C2=O)CC1 | 1.35 | 0.115 | 1.25 | > 1000 | 0.21 | 0.27 | 2.6 | 0.34 |
| C=CCN1CCN(/C=C2\N=C3CN=C(c4ccccc4)c4cc(Cl)ccc4N3C2=O)CC1 | 18 | 21 | > 50 | > 1000 | 25 | 13.5 | 13 | 2.3 |
| CN1CCN(/C=C2\N=C3CN=C(c4ccccc4)c4cc(Cl)ccc4N3C2=O)CC1 | 4.6 | 0.9 | 7.1 | > 1000 | 4.9 | 2.1 | 4.2 | 2.65 |
| CCN1CCN(/C=C2\N=C3CN=C(c4ccccc4Cl)c4cc(Cl)ccc4N3C2=O)CC1 | 1.2 | 0.087 | 2.3 | > 1000 | 2.5 | 2.2 | 0.56 | 0.5 |
| CCCCN1CCN(/C=C2\N=C3CN=C(c4ccccc4)c4cc(Cl)ccc4N3C2=O)CC1 | > 50 | 2 | 24 | > 1000 | 44 | 20.5 | 9 | 1.5 |
| CN1CCCC/C1=C1\N=C2CN=C(c3ccccc3)c3cc(Cl)ccc3N2C1=O |  |  |  | > 1000 |  | > 50 | > 50 | 20 |
| CNC1=Nc2ccc(Cl)cc2C(c2ccccc2)=[N+]([O-])C1 [CHLORDIAZEPOXIDE] | 4 | 1.9 | 5 |  | 64 | 8 | 6.8 | 7 |
| CN/C=C1\N=C2CN=C(c3ccccc3)c3cc(Cl)ccc3N2C1=O | > 50 |  | > 50 | > 1000 | > 50 |  |  | 5.3 |
| O=C1/C(=C/N2CCCCC2)N=C2CN=C(c3ccccc3)c3cc(Cl)ccc3N12 | > 50 | 16 | > 50 | > 1000 | 1 | > 50 |  | > 20 |
| CN(C)c1ccc(/C=C2\N=C3CN=C(c4ccccc4)c4cc(Cl)ccc4N3C2=O)cc1 |  | > 50 | > 50 | > 1000 | > 50 |  | > 50 | > 20 |
| CN(C)CCN(C)/C=C1\N=C2CN=C(c3ccccc3)c3cc(Cl)ccc3N2C1=O | > 50 |  | > 50 | > 1000 | > 50 |  | > 50 |  |
| O=CN1CCN(/C=C2\N=C3CN=C(c4ccccc4)c4cc(Cl)ccc4N3C2=O)CC1 | > 50 |  |  | > 1000 |  |  |  | > 20 |
| N/C=C1\N=C2CN=C(c3ccccc3)c3cc(Cl)ccc3N2C1=O | 4.3 | 7.1 | > 50 | > 1000 | 1.65 | > 50 | > 50 |  |
| O=C1/C(=C/NCCO)N=C2CN=C(c3ccccc3)c3cc(Cl)ccc3N12 |  |  | 16 | > 1000 | 3.6 | 9.5 | 2.6 | 1.5 |
| O=C1/C(=C/c2ccccc2)N=C2CN=C(c3ccccc3)c3cc(Cl)ccc3N12 |  | > 50 | > 50 | > 1000 | > 50 |  |  |  |
| O=C1/C(=C/NC2CCCCC2)N=C2CN=C(c3ccccc3)c3cc(Cl)ccc3N12 | 6.2 | 2.35 | 15 | > 1000 | 8.3 | 8.5 |  | 1.4 |
